Experiments:
BzdNO [1] = molecular target: T1, BzdNO (Azoarcus sp. CIB, UniProt Z9PSW1D6O9); assay: rearomatization of dienoyl-CoA to benzoyl-CoA, UPLC; assay type: biochemical; conditions: artificial electron acceptor 0.5 mM; 0.2 mM dienoyl-CoA, pH 8.8, 30 °C, anaerobic
T1 construct: BzdN + BzdO heterodimer (catalytic dimer of class I benzoyl-CoA reductase, BZD type) without BzdPQ; C-terminal Strep-tag on BzdO; anaerobic purification; about 95 kDa theoretical, 107 kDa by SEC; BzdN to residue 376, BzdO to residue 442 (domain borders); with Benzoyl-CoA reductase subunit BzdN
T1 sequence (Z9PSW1D6O9 1-437): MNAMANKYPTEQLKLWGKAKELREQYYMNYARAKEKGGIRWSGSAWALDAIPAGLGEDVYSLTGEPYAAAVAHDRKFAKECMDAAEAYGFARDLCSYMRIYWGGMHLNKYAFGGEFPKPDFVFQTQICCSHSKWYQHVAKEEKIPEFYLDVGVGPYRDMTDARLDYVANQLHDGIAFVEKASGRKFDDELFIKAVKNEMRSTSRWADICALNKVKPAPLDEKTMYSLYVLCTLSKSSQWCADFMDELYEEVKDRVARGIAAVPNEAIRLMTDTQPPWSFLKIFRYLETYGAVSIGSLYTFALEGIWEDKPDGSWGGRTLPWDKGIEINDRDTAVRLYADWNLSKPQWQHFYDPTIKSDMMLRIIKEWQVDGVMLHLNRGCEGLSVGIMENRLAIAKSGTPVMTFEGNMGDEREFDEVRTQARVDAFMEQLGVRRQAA
T1 sequence (Z9U3P4NCS5 1-379 partner): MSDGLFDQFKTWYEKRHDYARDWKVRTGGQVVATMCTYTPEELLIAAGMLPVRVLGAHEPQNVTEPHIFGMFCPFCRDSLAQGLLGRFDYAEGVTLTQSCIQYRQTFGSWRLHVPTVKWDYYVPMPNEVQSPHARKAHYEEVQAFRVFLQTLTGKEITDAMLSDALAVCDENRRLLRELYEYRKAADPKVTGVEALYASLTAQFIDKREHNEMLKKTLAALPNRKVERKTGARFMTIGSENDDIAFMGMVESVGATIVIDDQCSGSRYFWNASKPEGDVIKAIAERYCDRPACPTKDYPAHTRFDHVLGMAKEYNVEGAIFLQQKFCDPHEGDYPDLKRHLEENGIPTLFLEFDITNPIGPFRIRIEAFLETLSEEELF

BzdNO [2] = molecular target: T1, BzdNO; assay: X-ray crystallography, co-crystal; assay type: binding; conditions: 1.4 Å; 5 mM compound, pH 7.5, anaerobic; non-covalent; active site channel of BzdO in front of [4Fe-4S]-OH2 cluster
BzdNO [3] = molecular target: T1, BzdNO; assay: X-ray crystallography, no ligand added; assay type: binding; conditions: weakly occupied, co-purified; partially CoA-free state
BzdNO [4] = molecular target: T1, BzdNO; assay: X-ray crystallography, co-crystal; also turnover in reverse reaction; assay type: binding; conditions: 5 mM compound, pH 7.5, anaerobic; non-covalent; same site as benzoyl-CoA; substrate of the reverse, viologen-dependent rearomatization

C[n+]1ccc(-c2cc[n+](C)cc2)cc1 [methyl viologen]
rearomatization of dienoyl-CoA to benzoyl-CoA, UPLC (BzdNO [1]): methyl viologen-dependent rearomatization of dienoyl-CoA to BzCoA

CC(C)(COP(=O)(O)OP(=O)(O)OC[C@H]1O[C@@H](n2cnc3c(N)ncnc32)[C@H](O)[C@@H]1OP(=O)(O)O)[C@@H](O)C(=O)NCCC(=O)NCCSC(=O)c1ccccc1 [benzoyl-CoA]
X-ray crystallography, co-crystal (BzdNO [2]): determined in a BzCoA bound (pdb 8SO2), dienoyl-CoA bound (pdb 8S1T)

CC(C)(COP(=O)(O)OP(=O)(O)OC[C@H]1O[C@@H](n2cnc3c(N)ncnc32)[C@H](O)[C@@H]1OP(=O)(O)O)[C@@H](O)C(=O)NCCC(=O)NCCS [CoA]
X-ray crystallography, no ligand added (BzdNO [3]): appears to contain besides several solvent molecules a weakly occupied CoA ligand

CC(C)(COP(=O)(O)OP(=O)(O)OC[C@H]1O[C@@H](n2cnc3c(N)ncnc32)[C@H](O)[C@@H]1OP(=O)(O)O)[C@@H](O)C(=O)NCCC(=O)NCCSC(=O)C1=CCCC=C1 [dienoyl-CoA, cyclohexa-1,5-diene-1-carbonyl-CoA]
X-ray crystallography, co-crystal; also turnover in reverse reaction (BzdNO [4]): BzdNO in complex with the product dienoyl-CoA reveals the identical binding mode as the substrate
